Source: paper PMC3725310 (Nature, 2013)

Target: p7(5a) (Hepatitis C virus (isolate EUH1480), UniProt O39928, A759S/C749A/C774T/C791S/T748G)
Assay: biochemical
Format: binding

CC(N)C12CC3CC(CC(C3)C1)C2 (stereo not shown) [rimantadine] gave a Kd of 50 to 100 µM.
